# Tested on: HCV pseudoparticles (genotype 1a HCV E1 and E2 envelope, H77C isolate)
# Assay: microbe, parasite or virus in culture
# Type: cell-based
# Details: Hepatitis C virus, Huh-7, 48 h, HCV pseudoparticle infection of Huh7 cells, luciferase 2 days after infection; average of duplicates
row,Structure (SMILES),EC50
1,COC(=O)[C@H](CCNC(=O)C(=O)NC(c1ccc(OC)cc1)C1CC1)NC(=O)c1ccc(Nc2nc(NC3(c4ccc(Cl)cc4)CC3)nc(OCC(F)(F)F)n2)cc1 (stereo partly shown) [Compound 1418],0.28 nM

# Same assay, conditions: Hepatitis C virus, Huh-7, 48 h, HCV pseudoparticles (genotype 1a, H77C) in Huh7 cells; average of duplicate; luciferase 2 days after infection
row,Structure (SMILES),EC50
1,C=Cc1ccc(NC(=O)C(=O)NCC(C)(C)CNC(=O)c2ccc(Nc3nc(NC4(c5ccc(Cl)cc5)CC4)nc(OCC(F)(F)F)n3)cc2F)cc1 [Compound 3515],0.017 nM
2,O=C(NC[C@H](NC(=O)c1ccc(Nc2nc(NC3(c4ccc(Cl)cc4)CC3)nc(OCC(F)(F)F)n2)cc1)C(=O)O)C(=O)Nc1ccc(Oc2ccncc2)cc1 [Compound 3289],2.53 nM

# Same assay, conditions: Hepatitis C virus, Huh-7, 48 h, read-out: Activity (EC50 class), HCV pseudoparticle infection of Huh7 cells, luciferase 2 days after infection; EC50 expressed as class A/B
row,Structure (SMILES),EC50
1,COC(=O)[C@H](CNC(=O)C(=O)N[C@@H]1C[C@@H]2CC[C@H]1C2)NC(=O)c1ccc(Nc2nc(NC3(c4ccc(Cl)cc4)CC3)nc(OCC(F)(F)F)n2)cc1 [Compound 1050],0.01 to 10 nM
2,CC(C)(C)OC(=O)NC1CCC(NC(=O)C(=O)NC[C@H](NC(=O)c2ccc(Nc3nc(NC4(c5ccc(Cl)cc5)CC4)nc(OCC(F)(F)F)n3)cc2)C(=O)O)CC1 (stereo partly shown) [Compound 1085],0.01 to 10 nM
3,COC(=O)[C@H](CCNC(=O)C(=O)NC(c1ccc(OC)cc1)C1CC1)NC(=O)c1ccc(Nc2nc(NC3(c4ccc(Cl)cc4)CC3)nc(OCC(F)(F)F)n2)cc1 (stereo partly shown) [Compound 1418],0.01 to 10 nM
4,O=C(NCC[C@H](NC(=O)c1ccc(Nc2nc(NC3(c4ccc(Cl)cc4)CC3)nc(OCC(F)(F)F)n2)cc1)C(=O)O)C(=O)NCC1OCCc2ccccc21 (stereo partly shown) [Compound 1341],0.01 to 10 nM
5,COc1ccc(CNC(=O)C(=O)NC[C@H](NC(=O)c2ccc(Nc3nc(NC4(c5ccc(Cl)cc5)CC4)nc(OCC(F)(F)F)n3)cc2)C(=O)O)cc1OC [Compound 1176],0.01 to 10 nM
6,CC(C)(CNC(=O)C(=O)Nc1cc(F)cc(F)c1)CNC(=O)c1ccc(Nc2nc(NC3(c4ccc(Cl)cc4)CC3)nc(OCC(F)(F)F)n2)cc1 [Compound 1540],0.01 to 10 nM
7,COC(=O)[C@@H](CCNC(=O)C(=O)NCC1(Cn2ccnc2)CC1)NC(=O)c1ccc(Nc2nc(NC3(c4ccc(Cl)cc4)CC3)nc(OCC(F)(F)F)n2)cc1 [Compound 1385],0.01 to 10 nM
8,O=C(NCC[C@H](NC(=O)c1ccc(Nc2nc(NC3(c4ccc(Cl)cc4)CC3)nc(OCC(F)(F)F)n2)cc1)C(=O)O)C(=O)NC1(Cc2ccccc2)CC1 [Compound 1346],0.01 to 10 nM
9,COC(=O)[C@H](CNC(=O)C(=O)NCCn1cccn1)NC(=O)c1ccc(Nc2nc(NC3(c4ccc(Cl)cc4)CC3)nc(OCC(F)(F)F)n2)cc1 [Compound 1300],0.01 to 10 nM
10,COc1cccc(NC(=O)C(=O)NC[C@H](NC(=O)c2ccc(Nc3nc(NC4(c5ccc(Cl)cc5)CC4)nc(OCC(F)(F)F)n3)cc2)C(=O)O)c1 [Compound 1358],0.01 to 10 nM
11,"CCOC(=O)[C@H](CNC(=O)C(=O)NC)NC(=O)c1ccc(Nc2nc(NC3(c4ccc(Cl)cc4)CC3)nc(OCC(F)(F)F)n2)cc1 [Compound 1024, (S)-ethyl 2-(4-(4-(1-(4-chlorophenyl)cyclopropylamino)-6-(2,2,2-trifluoroethoxy)-1,3,5-triazin-2-ylamino)benzamido)-3-(2-(methylamino)-2-oxoacetamido)propanoate]",0.01 to 10 nM
12,"CCOC(=O)[C@H](CCNC(=O)C(=O)NC)NC(=O)c1ccc(Nc2nc(NC3(c4ccc(Cl)cc4)CC3)nc(OCC(F)(F)F)n2)cc1 [Compound 1027, (S)-ethyl 2-(4-(4-(1-(4-chlorophenyl)cyclopropylamino)-6-(2,2,2-trifluoroethoxy)-1,3,5-triazin-2-ylamino)benzamido)-4-(2-(methylamino)-2-oxoacetamido)butanoate]",0.01 to 10 nM
13,CCC1CCC(NC(=O)C(=O)NC[C@H](NC(=O)c2ccc(Nc3nc(NC4(c5ccc(Cl)cc5)CC4)nc(OCC(F)(F)F)n3)cc2)C(=O)O)CC1 (stereo partly shown) [Compound 1093],0.01 to 10 nM
14,COC(=O)[C@H](CNC(=O)C(=O)Nc1ccnn1C)NC(=O)c1ccc(Nc2nc(NC3(c4ccc(Cl)cc4)CC3)nc(OCC(F)(F)F)n2)cc1 [Compound 1260],0.01 to 10 nM
15,COC(=O)[C@H](CCNC(=O)C(=O)Nc1ccc(F)cc1F)NC(=O)c1ccc(Nc2nc(NC3(c4ccc(Cl)cc4)CC3)nc(OCC(F)(F)F)n2)cc1 [Compound 1501],0.01 to 10 nM
16,O=C(NC[C@H](NC(=O)c1ccc(Nc2nc(NC3(c4ccc(Cl)cc4)CC3)nc(OCC(F)(F)F)n2)cc1)C(=O)O)C(=O)Nc1ccc(C(F)(F)F)cc1 [Compound 1363],0.01 to 10 nM
17,O=C(NCC[C@H](NC(=O)c1ccc(Nc2nc(NC3(c4ccc(Cl)cc4)CC3)nc(OCC(F)(F)F)n2)cc1)C(=O)O)C(=O)NCc1cccc(F)c1F [Compound 1177],0.01 to 10 nM
18,CC1(C)[C@H]2CCC(CNC(=O)C(=O)NC[C@H](NC(=O)c3ccc(Nc4nc(NC5(c6ccc(Cl)cc6)CC5)nc(OCC(F)(F)F)n4)cc3)C(=O)O)[C@@H]1C2 (stereo partly shown) [Compound 1473],0.01 to 10 nM
19,O=C(NC[C@H](NC(=O)c1ccc(Nc2nc(NC3(c4ccc(Cl)cc4)CC3)nc(OCC(F)(F)F)n2)cc1)C(=O)O)C(=O)N[C@@H]1C[C@@H]2CC[C@H]1C2 [Compound 1080],0.01 to 10 nM
20,O=C(NCC[C@H](NC(=O)c1ccc(Nc2nc(NC3(c4ccc(Cl)cc4)CC3)nc(OCC(F)(F)F)n2)cc1)C(=O)O)C(=O)NCc1c(F)cccc1F [Compound 1190],0.01 to 10 nM
21,COC(=O)[C@H](CCNC(=O)C(=O)NCC1CC1(Cl)Cl)NC(=O)c1ccc(Nc2nc(NC3(c4ccc(Cl)cc4)CC3)nc(OCC(F)(F)F)n2)cc1 (stereo partly shown) [Compound 1372],0.01 to 10 nM
22,COC(=O)[C@H](CCNC(=O)C(=O)NCC1CC1c1cc(F)ccc1F)NC(=O)c1ccc(Nc2nc(NC3(c4ccc(Cl)cc4)CC3)nc(OCC(F)(F)F)n2)cc1 (stereo partly shown) [Compound 1373],0.01 to 10 nM

# Same assay, conditions: Hepatitis C virus, Huh-7, 48 h, read-out: Activity (EC50 class), HCV pseudoparticles, Huh7 cells, luciferase 2 days after infection; average of duplicates
row,Structure (SMILES),EC50
1,COc1cc2sc(NC(=O)C(=O)NCC(C)(C)CNC(=O)c3ccc(Nc4nc(NC5(c6ccc(Cl)cc6)CC5)nc(OCC(F)(F)F)n4)cc3)nc2cc1Cl [Compound 3802],0.01 to 10 nM
2,C=Cc1cccc(NC(=O)C(=O)NCC(C)(C)CNC(=O)c2ccc(Nc3nc(NC4(c5ccc(Cl)cc5)CC4)nc(OCC(F)(F)F)n3)cc2)c1 [Compound 3670],0.01 to 10 nM
3,O=C(NC[C@H](NC(=O)c1ccc(Nc2nc(NC3(c4ccc(Cl)cc4)CC3)nc(OCC(F)(F)F)n2)cc1)C(=O)O)C(=O)Nc1cccc(CCc2ccccn2)c1 [Compound 3769],0.01 to 10 nM
4,COC(=O)[C@H](CNC(=O)C(=O)Nc1cccc(-c2ccccc2)c1)NC(=O)c1ccc(Nc2nc(NC3(c4ccc(Cl)cc4)CC3)nc(OCC(F)(F)F)n2)cc1 [Compound 3695],0.01 to 10 nM
5,COC(=O)[C@H](CCNC(=O)C(=O)Nc1cccc(-c2cccnc2)c1)NC(=O)c1ccc(Nc2nc(NC3(c4ccc(Cl)cc4)CC3)nc(OCC(F)(F)F)n2)cc1 [Compound 3604],0.01 to 10 nM

# Same assay, conditions: Hepatitis C virus, Huh-7, read-out: Activity (EC50 class), HCV pseudoparticles (genotype 1a, H77C) in Huh7 cells; EC50 expressed as class A/B
row,Structure (SMILES),EC50
1,COC(=O)[C@@H](CCNC(=O)C(=O)Nc1cccc(C(=O)c2ccccc2)c1)NC(=O)c1ccc(Nc2nc(NC3(c4ccc(Cl)cc4)CC3)nc(OCC(F)(F)F)n2)cc1 [Compound 3576],0.01 to 10 nM
2,C=Cc1ccc(NC(=O)C(=O)NCC(C)(C)CNC(=O)c2ccc(Nc3nc(NC4(c5ccc(Cl)cc5)CC4)nc(OCC(F)(F)F)n3)cc2F)cc1 [Compound 3515],0.01 to 10 nM
3,CC(C)(CNC(=O)C(=O)NS(C)(=O)=O)CNC(=O)c1ccc(Nc2nc(NC3(c4ccc(Cl)cc4)CC3)nc(OCC(F)(F)F)n2)cc1 [Compound 3031],0.01 to 10 nM
4,CC(C)(C)c1ccc(NC(=O)C(=O)NCC[C@H](NC(=O)c2ccc(Nc3nc(NC4(c5ccc(Cl)cc5)CC4)nc(OCC(F)(F)F)n3)cc2)C(=O)O)cc1 [Compound 3549],0.01 to 10 nM
5,O=C(Nc1nccs1)C(=O)N[C@H](CCNC(=O)c1ccc(Nc2nc(NC3(c4ccc(Cl)cc4)CC3)nc(OCC(F)(F)F)n2)cc1)C(=O)O [Compound 3496],10 to 1000 nM
6,COc1ccc(NC(=O)C(=O)NCC(C)(C)CNC(=O)c2ccc(Nc3nc(NC4(c5ccc(Cl)cc5)CC4)nc(OCC(F)(F)F)n3)cc2)cc1 [Compound 3007],0.01 to 10 nM
7,Cc1cc(NC(=O)C(=O)NCCCCNC(=O)c2ccc(Nc3nc(NC4(c5ccc(Cl)cc5)CC4)nc(OCC(F)(F)F)n3)cc2)no1 [Compound 3394],0.01 to 10 nM
8,O=C(NCCC(NC(=O)c1ccc(Nc2nc(NC3(c4ccc(Cl)cc4)CC3)nc(OCC(F)(F)F)n2)cc1)C(=O)O)C(=O)Nc1ccc(Oc2ccc(F)cc2)cc1 (stereo not shown) [Compound 3522],10 to 1000 nM
9,Cc1cc(NC(=O)C(=O)N(C)CCCN(C)C(=O)c2ccc(Nc3nc(NC4(c5ccc(Cl)cc5)CC4)nc(OCC(F)(F)F)n3)cc2)no1 [Compound 3423],0.01 to 10 nM
10,O=C(NC/C(=N/C(=O)c1ccc(Nc2nc(NC3(c4ccc(Cl)cc4)CC3)nc(OCC(F)(F)F)n2)cc1)C(=O)O)C(=O)Nc1ccc(-c2nnco2)cc1 [Compound 3161],0.01 to 10 nM
11,O=C(Nc1ccccc1)C(=O)N[C@H](CCNC(=O)c1ccc(Nc2nc(NC3(c4ccc(Cl)cc4)CC3)nc(OCC(F)(F)F)n2)cc1)C(=O)O [Compound 3494],0.01 to 10 nM
12,CC(CNC(=O)C(=O)Nc1nccs1)CNC(=O)c1ccc(Nc2nc(NC3(c4ccc(Cl)cc4)CC3)nc(OCC(F)(F)F)n2)cc1 (stereo not shown) [Compound 3468],0.01 to 10 nM
13,O=C(NCCCCNC(=O)c1ccc(Nc2nc(NC3(c4ccc(Cl)cc4)CC3)nc(OCC(F)(F)F)n2)cc1)C(=O)Nc1ccc(F)cc1 [Compound 3395],0.01 to 10 nM
14,CC(C)(CNC(=O)C(=O)Nc1ccc(F)c(F)c1F)CNC(=O)c1ccc(Nc2nc(NC3(c4ccc(Cl)cc4)CC3)nc(OCC(F)(F)F)n2)cc1 [Compound 3262],0.01 to 10 nM
15,COC(=O)[C@H](CNC(=O)C(=O)Nc1ccc(-n2ccnc2)cc1)NC(=O)c1ccc(Nc2nc(NC3(c4ccc(Cl)cc4)CC3)nc(OCC(F)(F)F)n2)cc1 [Compound 3183],0.01 to 10 nM
16,CC(C)(CNC(=O)C(=O)NCc1ccc(C(=N)N)cc1)CNC(=O)c1ccc(Nc2nc(NC3(c4ccc(Cl)cc4)CC3)nc(OCC(F)(F)F)n2)cc1 [Compound 3043],0.01 to 10 nM
17,COC(=O)[C@H](CCNC(=O)C(=O)Nc1ccc(OC(F)F)cc1)NC(=O)c1ccc(Nc2nc(NC3(c4ccc(Cl)cc4)CC3)nc(OCC(F)(F)F)n2)cc1 [Compound 3332],0.01 to 10 nM
18,O=C(NC[C@H](NC(=O)c1ccc(Nc2nc(NC3(c4ccc(Cl)cc4)CC3)nc(OCC(F)(F)F)n2)cc1)C(=O)O)C(=O)Nc1ccc(Oc2ccncc2)cc1 [Compound 3289],0.01 to 10 nM
19,O=C(NC[C@H](NC(=O)c1ccc(Nc2nc(NC3(c4ccc(Cl)cc4)CC3)nc(OCC(F)(F)F)n2)cc1)C(=O)O)C(=O)Nc1ccc(-c2cc[nH]n2)cc1 [Compound 3278],0.01 to 10 nM
